Laboratory results from patent US5416118A, “Bicyclic amides as inhibitors of acyl-coenzyme A: cholesterol acyl transferase” (Schering Corporation, priority 1993, dated 1995).

Tests used:
cholesteryl esters = test: In Vivo Assay of Hypolipidemic Agents Using the Hyperlipidemic Hamster; conditions: Mesocricetus auratus, po, 168 h, oral gavage once daily, 7 days, versus control, read-out: % Reduction in cholesteryl esters; for change in vivo at 50 mg/kg: 50 mpk; for change in vivo at 100 mg/kg: 100 mpk; for change in vivo at 25 mg/kg: 25 mpk
Method: In Vivo Assay of Hypolipidemic Agents Using the Hyperlipidemic Hamster
Hamsters are separated into groups of six and given a control cholesterol diet (Pudna Chow #5001 containing 0.5% cholesterol) for seven days. Diet consumption is monitored to determine dietary cholesterol exposure in the face of test compounds. The animals are dosed with the test compound once daily beginning with the initiation of diet. Dosing is by oral gavage of 0.2 mL of corn oil alone (control group) or solution (or suspension) of test compound in corn oil. All animals moribund or in poor physical condition are euthanized. After seven days, the animals are anesthetized by […] of ketamine and sacrificed by decapitation. Blood is collected into vacutainer tubes containing EDTA for plasma lipid analysis and the liver excised for tissue lipid analysis. Data is reported as percent reduction of lipid versus control.
(§1) Using the assay methods described above, the compounds of Examples 1-9 were tested for in vitro ACAT inhibitory activity and for the ability to lower the level of cholesteryl esters in vivo.

ACAT = ACAT Assay (in vitro); format: biochemical; conditions: dose = 10 μM; rat liver microsomes
Method: This assay measures the activity of ACAT by measuring the ACAT-mediated transfer of tritiated oleic acid from acyl-CoA to cholesterol to give labelled cholesterol oleate. Rat liver microsomes are used as the source of ACAT. Assays are performed in round bottom microtiterplates using a total incubation volume of 50 μL. Each incubation well receives 10 μL assay buffer (0.5M KHPO4, 10 μM dithiothreitol, pH 7.4), 7.5 μL of 40 mg/mL BSA (Bovine Serum Albumin) and 12.5 μg of microsomal protein. The test compound (in sufficient amount to bring the final concentration to from 0.1 to 25 μM), reference compound, or vehicle control is added and the final volume brought to 47 μL. The microtiterplate is then floated on the surface of a 37° C. water bath for fifteen minutes. Incubations are started by the addition of 3 μL ^3 H-acyl CoA (1 μCi/well, final concentration of 10 μM acyl CoA). The plate is then returned to the water bath for 15 minutes. The incubations are then terminated by application of 15 μL from each incubation to individual lanes on a thin layer plate (Silica Gel GF 20×20 cm). Standards are applied to several lanes so that the cholesterol ester band can be identified. After drying, the plates are eluted with 90:10:1 petroleum ether:ether:HOAc. The standards are visualized via iodine vapor, and the regions corresponding to cholesterol ester are scraped into 7 mL scintillation vials. 4 mL of scintillant are added to each vial, and the radioactivity quantified. Background count is determined by the boiled controls. Full activity is determined by activity in the presence of vehicle. The percent inhibition is calculated by subtracting the background from both control and test samples, and the test value is calculated as a percentage of the control. For IC50 determinations, the inhibition is plotted against drug doses on a log scale and the concentration at which 50% inhibition is obtained is determined.
as §1

Row | Compound | change in vivo at 50 mg/kg (cholesteryl esters) [%] | ACAT % Inhibition (ACAT) [%] | other results
1 | COc1ccc([C@@H]2CCc3ccccc3[C@@H]2NC(=O)C(c2ccccc2)c2ccccc2)cc1 (relative stereo) [Example 1, cis-N-[-2-(4'-methoxyphenyl)-1,2,3,4-tetrahydronaphthalen-1-yl]-α-phenylbenzeneacetamide] | 0 | – | –
2 | COc1ccccc1[C@H]1CCc2ccccc2[C@@H]1NC(=O)C(c1ccccc1)c1ccccc1 (relative stereo) [Example 1B] | 21 | – | –
3 | COc1cccc([C@H]2CCc3ccccc3[C@@H]2NC(=O)C(c2ccccc2)c2ccccc2)c1 (relative stereo) [Example 1D] | 0 | – | –
4 | O=C(N[C@H]1c2ccccc2OC[C@H]1c1ccccc1)C(c1ccccc1)c1ccccc1 (relative stereo) [Example 1E] | 0 | 40 | –
5 | CCCCCCCCCC(C)(C)C(=O)N[C@H]1c2ccccc2CC[C@@H]1c1ccc(OC)cc1 (relative stereo) [Example 1F] | 0 | 36 | –
6 | COc1ccc([C@H]2CCc3ccccc3[C@@H]2NC(=O)C(c2ccccc2)c2ccccc2)cc1 (relative stereo) [Example 1G] | 0 | – | –
7 | COc1ccc([C@@H]2CCCc3ccccc3[C@@H]2NC(=O)C(c2ccccc2)c2ccccc2)cc1 (relative stereo) [Example 1H] | 0 | 84 | –
8 | COc1ccc([C@H]2CCCc3ccccc3[C@@H]2NC(=O)C(c2ccccc2)c2ccccc2)cc1 (relative stereo) [Example 1I] | – | 63 | –
9 | O=C(N[C@H]1c2ccccc2CC[C@@H]1c1ccncc1)C(c1ccccc1)c1ccccc1 (relative stereo) [Example 1J] | -39 | – | –
10 | O=C(N[C@H]1c2ccccc2OC[C@@H]1c1ccccc1)C(c1ccccc1)c1ccccc1 (relative stereo) [Example 1M] | 0 | 85 | –
11 | COc1ccc([C@H]2CCc3ccc(OC)cc3[C@@H]2NC(=O)C(c2ccccc2)c2ccccc2)cc1 (relative stereo) [Example 1R] | 0 | – | –
12 | COc1ccc([C@@H]2Cc3ccccc3[C@@H]2NC(=O)C(c2ccccc2)c2ccccc2)cc1 (relative stereo) [Example 2, cis-N-[2-(4'-methoxyphenyl)indanyl]-α-phenylbenzeneacetamide] | -17 | 96 | –
13 | COc1cccc([C@@H]2Cc3ccccc3[C@@H]2NC(=O)C(c2ccccc2)c2ccccc2)c1 (relative stereo) [Example 2A] | 0 | 99 | –
14 | COc1cccc([C@H]2Cc3ccccc3[C@@H]2NC(=O)C(c2ccccc2)c2ccccc2)c1 (relative stereo) [Example 2B] | – | 94 | –
15 | O=C(N[C@H]1c2ccccc2C[C@H]1c1cccc([N+](=O)[O-])c1)C(c1ccccc1)c1ccccc1 (relative stereo) [Example 2C] | 0 | 99 | –
16 | O=C(N[C@H]1c2ccccc2C[C@@H]1c1cccc([N+](=O)[O-])c1)C(c1ccccc1)c1ccccc1 (relative stereo) [Example 2D] | – | 90 | –
17 | COc1ccc([C@H]2Cc3ccccc3[C@@H]2NC(=O)C(c2ccccc2)c2ccccc2)cc1 (relative stereo) [Example 2F] | 0 | 19 | –
18 | CCCCCCCC/C=C\CCCCCCCC(=O)N[C@H]1c2ccccc2CC[C@H]1c1ccc(OC)cc1 (relative stereo) [Example 2G] | – | 73 | change in vivo at 100 mg/kg (cholesteryl esters): 0%
19 | CCCCCCCC/C=C\CCCCCCCC(=O)N[C@H]1c2ccccc2CC[C@@H]1c1ccc(OC)cc1 (relative stereo) [Example 2H] | – | 81 | change in vivo at 100 mg/kg (cholesteryl esters): 0%
20 | O=C(N[C@H]1c2ccccc2C[C@H]1c1ccc([N+](=O)[O-])cc1)C(c1ccccc1)c1ccccc1 (relative stereo) [Example 2I] | – | 51 | –
21 | O=C(N[C@H]1c2ccccc2C[C@@H]1c1ccc([N+](=O)[O-])cc1)C(c1ccccc1)c1ccccc1 (relative stereo) [Example 2J] | – | -12 | –

Row | Compound | change in vivo at 50 mg/kg (cholesteryl esters) [%] | ACAT % Inhibition (ACAT) [%] | other results
22 | COc1ccc2c(c1)C[C@H](c1ccccc1)[C@H]2NC(=O)C(c1ccccc1)c1ccccc1 (relative stereo) [Example 2K] | – | 90 | change in vivo at 25 mg/kg (cholesteryl esters): 17%
23 | CCCCCCCC/C=C\CCCCCCCC(=O)N[C@H]1c2ccccc2CC[C@H]1c1ccccc1 (relative stereo) [Example 2L] | – | 66 | –
24 | CCCCCCCC/C=C\CCCCCCCC(=O)N[C@H]1c2ccccc2CC[C@@H]1c1ccccc1 (relative stereo) [Example 2M] | – | 99 | change in vivo at 100 mg/kg (cholesteryl esters): 0%
25 | CCCCCCCC/C=C\CCCCCCCC(=O)N[C@H]1c2ccccc2OC[C@@H]1c1ccccc1 (relative stereo) [Example 2O] | – | 87 | –
26 | Nc1ccc([C@H]2CCc3ccccc3[C@@H]2NC(=O)C(c2ccccc2)c2ccccc2)cc1 (relative stereo) [Example 2P] | – | – | change in vivo at 25 mg/kg (cholesteryl esters): -15%
27 | COc1ccc2c(c1)[C@H](NC(=O)C(c1ccccc1)c1ccccc1)[C@H](c1ccccc1)C2 (relative stereo) [Example 2Q] | – | 16 | –
28 | COc1ccc2c(c1)[C@H](NC(=O)C(c1ccccc1)c1ccccc1)[C@@H](c1ccccc1)C2 (relative stereo) [Example 2T] | – | 15 | –
29 | O=C(N[C@@H]1c2ccccc2CC[C@H]1c1ccccc1O)C(c1ccccc1)c1ccccc1 (relative stereo) [Example 3A] | 0 | – | –
30 | O=C(N[C@@H]1c2c(O)cccc2CC[C@H]1c1ccccc1)C(c1ccccc1)c1ccccc1 (relative stereo) [Example 3CC] | -20 | – | –
31 | O=C(N[C@@H]1c2ccccc2CCC[C@H]1c1ccc(O)cc1)C(c1ccccc1)c1ccccc1 (relative stereo) [Example 3J] | -61 | – | –
32 | O=C(N[C@@H]1c2ccc(O)cc2C[C@H]1c1ccccc1)C(c1ccccc1)c1ccccc1 (relative stereo) [Example 3L] | – | 93 | –
33 | O=C(N[C@@H]1c2ccccc2CCC[C@@H]1c1ccc(O)cc1)C(c1ccccc1)c1ccccc1 (relative stereo) [Example 3R] | 0 | – | –
34 | O=C(N[C@@H]1c2cccc(O)c2CC[C@H]1c1ccccc1)C(c1ccccc1)c1ccccc1 (relative stereo) [Example 3S] | 0 | – | –
35 | O=C(N[C@@H]1c2cccc(O)c2CC[C@@H]1c1ccccc1)C(c1ccccc1)c1ccccc1 (relative stereo) [Example 3T] | 0 | – | –
36 | O=C(N[C@@H]1c2cc(O)ccc2CC[C@H]1c1ccc(O)cc1)C(c1ccccc1)c1ccccc1 (relative stereo) [Example 3U] | -97 | – | change in vivo at 10 mg/kg (cholesteryl esters; 10 mpk): -60%; change in vivo at 30 mg/kg (cholesteryl esters; 30 mpk): -86%
37 | O=C(N[C@@H]1c2cc(O)ccc2CC[C@@H]1c1ccc(O)cc1)C(c1ccccc1)c1ccccc1 (relative stereo) [Example 3V] | 0 | – | –
38 | O=C(N[C@@H]1c2c(O)cccc2C[C@@H]1c1ccccc1)C(c1ccccc1)c1ccccc1 (relative stereo) [Example 3X] | – | 97 | –
39 | Nc1ccc([C@@H]2Cc3ccccc3[C@H]2NC(=O)C(c2ccccc2)c2ccccc2)cc1 (relative stereo) [Example 5, trans-N-[2-(4'-aminophenyl)indanyl]-α-phenylbenzeneacetamide] | – | 94 | –
40 | O=C(N[C@@H]1c2ccccc2C[C@@H]1c1ccc(O)cc1)C(c1ccccc1)c1ccccc1 (single isomer, unassigned) [Example 3BB] | – | < 0 | –
41 | O=C(N[C@@H]1c2cc(O)ccc2CC[C@H]1c1ccccc1)C(c1ccccc1)c1ccccc1 (single isomer, unassigned) [Example 3Y] | – | 83 | –
42 | O=C(N[C@@H]1c2cc(O)ccc2CC[C@H]1c1ccccc1)C(c1ccccc1)c1ccccc1 (single isomer, unassigned) [Example 3Z] | – | 92 | –
